According to patent publication US6682892B2, “Method for treating herpes viruses” (priority 2000, dated 2004):

Columns and labels:
[1] = tested on: HSV-2 186; assay: Plaque reduction assay, HSV-2 186; assay type: cell-based; conditions: Table 1, plaque reduction, Vero cells
Procedure: Antiviral activity of compounds against herpesviruses such as HSV-1, HSV-2, or HCMV can be measured using plaque reduction assays. 0.1 ml of media containing approximately 50 PFU of virus is added to each well of a 24-well cell culture dish containing a confluent monolayer of cells (Vero cells for HSV-1 and HSV-2, HFF cells for HCMV). Compounds are dissolved in 100% DMSO and diluted in 100% DMSO as 200× stocks of the desired final drug concentration. Typically 5-6 two-fold dilutions are prepared for each compound. Dilutions of compounds are then added to media containing 0.8% CMC resulting in a final 1× drug concentration. After the virus-infected cells have incubated for 1 h at 37° C., the virus innoculum is removed and 1 ml of media containing 0.8% CMC and the various concentrations of compound is added to each well of the dish. The dish is incubated at 37° C. for approximately 2-3 days (HSV-1 and HSV-2) or 6-9 days (HCMV) to allow sufficient growth of virus to form plaques in the cell monolayer. Plaques can be observed and counted microscopically or by staining the cells with 0.1% crystal violet in 20% ethanol. […] Antiviral activity of a compound is expressed as the concentration of compound predicted to reduce the number of plaques in a well by 50% (IC50). The IC50 values are calculated by plotting the per cent inhibition vs. concentration of compound using EXCEL software for linear regression.
A panel of viruses consisting of four strains of HSV-1 (KOS, F, DJL, Patton) and three strains of HSV-2 (MS, 35D, 186) are tested in a plaque reduction assay against four different 4-oxo-DHQ compounds (#1, 2, 4, 5 as shown in FIG. 1), and one 4-oxo-DHTP compound (#3 as shown in FIG. 1) and against Acyclovir. The six drugs inhibited replication of the seven virus strains with IC50 values ranging from 2-10 μM (Table 1). In order to select for 4-oxo-DHQ resistant mutants, HSV-1 strains KOS, F, and DJL along with HSV-2 strains 186 and MS are serially passaged in the presence of 20 uM compound 1. Following the seventh passage, 4-oxo-DHQ resistant virus from each strain are plaque purified three times and high-titer stocks are made.

[2] = tested on: 4-oxo-DHQ resistant HSV-1, HSV-2 and HCMV mutants; assay: Plaque reduction assay, 4-oxo-DHQ resistant mutants compared with parent virus; assay type: cell-based; conditions: HSV-1 and HSV-2 mutants
Procedure: Antiviral activity of compounds against herpesviruses such as HSV-1, HSV-2, or HCMV can be measured using plaque reduction assays. 0.1 ml of media containing approximately 50 PFU of virus is added to each well of a 24-well cell culture dish containing a confluent monolayer of cells (Vero cells for HSV-1 and HSV-2, HFF cells for HCMV). Compounds are dissolved in 100% DMSO and diluted in 100% DMSO as 200× stocks of the desired final drug concentration. Typically 5-6 two-fold dilutions are prepared for each compound. Dilutions of compounds are then added to media containing 0.8% CMC resulting in a final 1× drug concentration. After the virus-infected cells have incubated for 1 h at 37° C., the virus innoculum is removed and 1 ml of media containing 0.8% CMC and the various concentrations of compound is added to each well of the dish. The dish is incubated at 37° C. for approximately 2-3 days (HSV-1 and HSV-2) or 6-9 days (HCMV) to allow sufficient growth of virus to form plaques in the cell monolayer. Plaques can be observed and counted microscopically or by staining the cells with 0.1% crystal violet in 20% ethanol. […] The IC50 values are calculated by plotting the per cent inhibition vs. concentration of compound using EXCEL software for linear regression. […]

`Cn1cc(C(=O)NCc2ccc(Cl)cc2)c(=O)c2cc(/C=C\CO)cc(F)c21` [Compound 1] was tested, and the IC50 [1] was 2 µM and the “increase in IC50, HSV mutants selected with compound 1” value [2] was greater than 10 fold.
